Measured values from patent US6656022B2, “Method for polishing a semiconductor substrate member” (Hitachi, Ltd., priority 2001, dated 2003).
Where two headings read alike, the source gives them in different places.

Test: Solubility of abrasive-grain material at normal temperature
Assay type: physicochemical
[1] = abrasive-grain material, normal temperature (25° C.)

SMILES	Solubility [1] [%]	Solubility [%]
O=S(=O)([O-])[O-].O=S(=O)([O-])[O-].O=S(=O)([O-])[O-].[Ce+3].[Ce+3] [Example 4, Ce2(SO4)3]	7.59	–
[Cl][Cu][Cl] [Example 5, CuCl2]	42.8	–
O=S(=O)([O-])[O-].[Cu+2] [Example 6, CuSO4]	–	18.2
OC[C@H]1O[C@@](CO)(O[C@H]2O[C@H](CO)[C@@H](O)[C@H](O)[C@H]2O)[C@@H](O)[C@@H]1O [Example 11, sucrose]	67.0	–
O=C(O)CC(=O)O [Example 12, malonic acid]	32.2	–
